≈ marks a conversion by molar mass, not a printed value. Where “and” joins values, the source holds several entries; their conditions need not be identical. Identical values can stand only once. Like-named read-outs stand apart in the source and are kept apart here.
What was measured:
[1] = Lipophilicity determination by RP-HPLC (capacity factor k / log k); assay type: physicochemical; conditions: C18 column, MeOH 70% / H2O 30%, isocratic
Description: Hydrophobicities (log P/Clog P) of the compounds 1-5 and 8-14 were calculated using two commercially available programs (ChemDraw Ultra 10.0 and ACD/LogP) and also measured by means of the RP-HPLC determination of capacity factors k with subsequent calculation of log k. The procedure was performed under isocratic conditions with methanol as an organic modifier in the mobile phase using an end-capped non-polar C18 stationary RP column. The results are shown in Table 1 and illustrated in Figure 1.
A Waters Alliance 2695 XE HPLC separation module and a Waters Photodiode Array Detector 2996 (Waters Corp., Milford, MA, USA) were used. A Symmetry® C18 5 μm, 4.6 × 250 mm, Part No. WAT054275 (Waters Corp., Milford, MA, USA) chromatographic column was used. The HPLC separation process was monitored by Empower™ 2 Chromatography Data Software, Waters 2009 (Waters Corp., Milford, MA, USA). A mixture of MeOH p.a. (70%) and H2O-HPLC – Mili-Q Grade (30%) was used as a mobile phase. The total flow of the column was 1.0 mL/min, injection volume 30 μL, column temperature 30 °C and sample temperature 10°C. The detection wavelength of 210 nm was chosen. The KI methanolic solution was used for the dead time (tD) determination. Retention times (tR) were measured in minutes. The capacity factors k were calculated using the Empower™ 2 Chromatography Data Software according to formula k = (tR - tD)/tD, where tR is the retention time of the solute, whereas tD denotes the dead time obtained using an unretained analyte. Log k, calculated from the capacity factor k, is used as the lipophilicity index converted to log P scale.

[2] = tested on: photosynthetic electron transport (PET) in spinach chloroplasts; experiment: Inhibition of photosynthetic electron transport (PET) in spinach chloroplasts, DCPIP photoreduction; assay type: biochemical, Spinacia oleracea L.; conditions: DCPIP photoreduction, pH 7.2
Description: Chloroplasts were prepared from spinach (Spinacia oleracea L.) according to Masarovicova and Kralova. The inhibition of photosynthetic electron transport (PET) in spinach chloroplasts was determined spectrophotometrically (Genesys 6, Thermo Scientific, USA), using an artificial electron acceptor 2,6-dichlorophenol-indophenol (DCIPP) according to Kralova et al., and the rate of photosynthetic electron transport was monitored as a photoreduction of DCPIP. The measurements were carried out in phosphate buffer (0.02 mol/L, pH 7.2) containing sucrose (0.4 mol/L), MgCl2 (0.005 mol/L) and NaCl (0.015 mol/L). The chlorophyll content was 30 mg/L in these experiments and the samples were irradiated (~100 W/m^2) from 10 cm distance with a halogen lamp (250 W) using a 4 cm water filter to prevent warming of the samples (suspension temperature 22 °C). The studied compounds were dissolved in DMSO due to their limited water solubility.

Absidia corymbifera 272 = experiment: In vitro anti-fungal susceptibility, broth microdilution; assay type: cell-based
Description: (§1) The broth microdilution test was used for the assessment of in vitro anti-fungal activity of the synthesized compounds against Absidia corymbifera 272 (AC) and Trichophyton mentagrophytes 445 (TM). Fluconazole (FLU) was used as the standard since it is a clinically used anti-mycotic drug. The procedure was performed with a two-fold dilution of the compounds in […]., Prague, Czech Republic) buffered to pH 7.0 with 0.165 mol of 3-morpholino-propane-1-sulfonic acid (MOPS, Sigma, Germany). […] Drug-free controls were included. […] The values of the minimum inhibitory concentration (MICs) were determined after 24 and 48 h of static incubation at 35 °C. For T. mentagrophytes, the final MICs were determined after 72 and 120 h of incubation.

[3] = tested on: Trichophyton mentagrophytes 445; experiment: as above; assay type: cell-based; conditions: MIC = IC50 value, NA = no significant activity
Description: as §1

[4] = tested on: methicilin resistant Staphylococcus aureus H 5996/08; experiment: In vitro anti-bacterial susceptibility, Mueller-Hinton broth; assay type: cell-based; conditions: MRSA, methicillin-resistant Staphylococcus aureus, MIC = IC90 value, NA = no significant activity
[5] = tested on: Staphylococcus epidermidis H 6966/08; experiment: as above; assay type: cell-based; conditions: MIC = IC90 value, NA = no significant activity
[6] = tested on: M. avium paratuberculosis ATCC19698; experiment: In vitro anti-mycobacterial evaluation, alamarBlue; assay type: cell-based; conditions: 7 days, NA = no significant activity
[7] = set-up: method as in PMID 1151976; conditions: parameter of the substituents in the anilide part; cited from earlier work
[8] = tested on: Mycobacterium avium complex CIT19/06; experiment: In vitro anti-mycobacterial evaluation, alamarBlue; conditions: 5 days, NA = no significant activity
Description: (§2) Clinical isolates of Mycobacterium avium complex CIT19/06 (MAC), M. avium paratuberculosis ATCC19698 (MAP), and M. kansasii CIT11/06 (MK) were grown in Middlebrook broth (MB), supplemented with Oleic, Albumin, Dextrose, Catalase supplement (OADC, Becton Dickinson, UK). […] At log phase growth, culture (10 mL) was centrifuged at 15,000 rpm/20 min using a bench top centrifuge (Model CR 4-12 Jouan Inc., UK). Following removal of the supernatant, the pellet was washed in fresh Middlebrook 7H9GC broth and re-suspended in fresh supplemented MB (10 mL). The turbidity was adjusted to match McFarland standard No. 1 (3 × 10^8 cfu) with MB broth. A further 1:20 dilution of the culture was then performed in MB broth.
(§3) The anti-microbial susceptibility of all three mycobacterial species was investigated in a 96-well plate format. […] Each evaluated compound (100 µL) was incubated with each of the mycobacterial species (100 µL). […] Following incubation, a 10% addition of alamarBlue (AbD Serotec) was mixed into each well and readings at 570 nm and 600 nm were taken, initially for background subtraction and subsequently after 24 h re-incubation. […] For non-interfering compounds, a blue colour in the well was interpreted as an absence of growth and a pink colour was scored as growth. […]

M. kansasii CIT11/06 = experiment: In vitro anti-mycobacterial evaluation, alamarBlue; conditions: 5 days, NA = no significant activity
Description: as §2, §3

[9] = tested on: photosynthetic electron transport (PET) in spinach chloroplasts; set-up: method as in earlier work; conditions: standard, read-out: PET inhibition IC50; cited from earlier work
[10] = tested on: photosynthetic apparatus of spinach chloroplasts (PS 2 / PS 1); experiment: Site of action: restoration of PET by artificial electron donors (DPC, DCPIPH2); assay type: biochemical, Spinacia oleracea L.
Description: To further determine the site of action of the studied compounds, experiments with 1,5-diphenylcarbazide (DPC) were performed. DPC is an artificial electron donor for PS 2 with a known site of action in the Z^•/D^• intermediate. The site of action of the artificial electron acceptor 2,6-dichlorophenol-indophenol (DCPIP) used for monitoring the Hill reaction is plastoquinone on the acceptor side of PS 2 [51]. Thus, if the part of the photosynthetic electron transport chain between manganese cluster and Z/D is inhibited, then DPC will restore PET through PS 2.

[11] = tested on: photosynthetic apparatus of spinach chloroplasts; experiment: EPR spectra of treated spinach chloroplasts; assay type: biochemical, Spinacia oleracea L.; conditions: 0.05 M of compound, under irradiation, versus untreated chloroplasts
Description: Experiments were then performed to determine the site of action of the studied compounds in the photosynthetic apparatus. In Figure 2, EPR spectra of untreated chloroplasts and those treated with the very effective PET inhibitor, compound 3 (Table 2), are presented. The EPR spectrum of untreated chloroplasts recorded in the dark consists of the typical signal IIslow (g = 2.0046, ΔBpp= 2 mT, see Figure 2A - full line). An increase of EPR signal intensity in the light represents signal IIvery fast (g = 2.0046, ΔBpp= 2 mT; in Figure 2A it is the difference between dotted and full lines). These EPR signals belong to the intermediates D^• and Z^• respectively, which are tyrosine radicals situated in the 161st positions in D2 (for D) and D1 (for Z) proteins at the donor side of PS 2 [48, 49]. […]
EPR spectra were registered by the equipment ERS 230 (ZWG, Acad. Sci., Berlin, Germany), which operates in X-band (~9.3 GHz), with modulation amplitude 0.5 mT and microwave power 5 mW at room temperature. The samples containing chlorophyll (3.2 g/L) were measured in a flat quartz cell and their irradiation (~400 μE/m^2s PAR) was carried out directly in the resonance cavity with a 250 W halogen lamp from 0.5 m distance through 5 cm water filter.

[12] = Lichtheimia corymbifera, 272, 24 h, read-out: MIC AC 24 h
[13] = Lichtheimia corymbifera, 272, 48 h, read-out: MIC AC 48 h
[14] = H6966/08, 24 h, read-out: MIC SE 24 h
[15] = H6966/08, 48 h, read-out: MIC SE 48 h

Structure (SMILES) | log k [1] | IC50 [2] [nM] | MIC (Absidia corymbifera 272; [12]) [µM] | MIC (Absidia corymbifera 272; [13]) [µM] | MIC ([3]; 72 h, read-out: MIC TM 72 h) [µM] | MIC ([3]; 120 h, read-out: MIC TM 120 h) [µM] | MIC ([4]; 24 h, read-out: MIC MRSA 24 h) [µM] | MIC ([4]; 48 h, read-out: MIC MRSA 48 h) [µM] | MIC [5, 14] [µM] | MIC [5, 15] [µM] | MIC/IC90 MAP [6] [µg/mL] | MR (bulk parameter, reflecting bulkiness) [7] | σ (Hammett's parameter) [7] | MIC/IC90 MAC [8] [µg/mL] | MIC/IC90 MK (M. kansasii CIT11/06) [µg/mL] | IC50 [9] | restoration of PET through PS 1 after addition of DCPIPH2 ([10]; DCPIPH2 40 μmol/L added to treated chloroplasts) | restoration of PET through PS 2 after addition of DPC ([10]; DPC 2 mmol/L added to treated chloroplasts) | intensity of the EPR signal (signal I) in irradiated chloroplasts [11]
Cc1ccccc1NC(=O)c1ccccc1O [Compound 1, 2-Hydroxy-N-(2-methylphenyl)benzamide] | 0.6661 | 2700 | 62.5 (≈ 14.2 µg/mL) | 250 (≈ 56.8 µg/mL) | 62.5 (≈ 14.2 µg/mL) | 125 (≈ 28.4 µg/mL) | 125 (≈ 28.4 µg/mL) | 250 (≈ 56.8 µg/mL) | 125 (≈ 28.4 µg/mL) | 250 (≈ 56.8 µg/mL) | 250 (≈ 1100 µM) | 4.7 | 0.10 | 250 (≈ 1100 µM) | 125 (≈ 550 µM) |  |  |  | 
CN(C)C(=O)Nc1ccc(Cl)c(Cl)c1 [DCMU, 3-(3,4-dichlorophenyl)-1,1-dimethylurea] |  |  |  |  |  |  |  |  |  |  |  |  |  |  |  | ~1900 nM and 1900 nM |  |  | 
NNC(=O)c1ccncc1 [INH, Isoniazid, reference compound] |  |  |  |  |  |  |  |  |  |  | >250 |  |  | <10 | <10 |  |  |  | 
COc1ccccc1NC(=O)c1ccccc1O [Compound 3, 2-Hydroxy-N-(2-methoxyphenyl)benzamide] | 0.6770 | 1600 | 125 (≈ 30.4 µg/mL) | 125 (≈ 30.4 µg/mL) | 125 (≈ 30.4 µg/mL) | 125 (≈ 30.4 µg/mL) | 500 (≈ 122 µg/mL) | > 500 | > 500 | > 500 |  | 6.5 | 0.00 |  |  |  | completely restored | not restored | marked increase

From article PMC6259458, “Investigating the Spectrum of Biological Activity of Ring-Substituted Salicylanilides and Carbamoylphenylcarbamates” (Molecules, 2010)
